{"source": "patent US8709821B2", "about": "“Luminescent substrate for liciferase” (The University of Electro-Communications, priority 2008, dated 2014)", "key": {"[1]": {"conditions": "luciferin derivative, patent document 1; cited from earlier work"}, "[2]": {"target": "T1, luciferase (derived from Photinus pyralis of North America product firefly) (Photinus pyralis, UniProt P08659)", "T1 construct": "purchased Sigma-Aldrich Corporation or Promega KK", "T1 sequence (P08659 whole entry)": "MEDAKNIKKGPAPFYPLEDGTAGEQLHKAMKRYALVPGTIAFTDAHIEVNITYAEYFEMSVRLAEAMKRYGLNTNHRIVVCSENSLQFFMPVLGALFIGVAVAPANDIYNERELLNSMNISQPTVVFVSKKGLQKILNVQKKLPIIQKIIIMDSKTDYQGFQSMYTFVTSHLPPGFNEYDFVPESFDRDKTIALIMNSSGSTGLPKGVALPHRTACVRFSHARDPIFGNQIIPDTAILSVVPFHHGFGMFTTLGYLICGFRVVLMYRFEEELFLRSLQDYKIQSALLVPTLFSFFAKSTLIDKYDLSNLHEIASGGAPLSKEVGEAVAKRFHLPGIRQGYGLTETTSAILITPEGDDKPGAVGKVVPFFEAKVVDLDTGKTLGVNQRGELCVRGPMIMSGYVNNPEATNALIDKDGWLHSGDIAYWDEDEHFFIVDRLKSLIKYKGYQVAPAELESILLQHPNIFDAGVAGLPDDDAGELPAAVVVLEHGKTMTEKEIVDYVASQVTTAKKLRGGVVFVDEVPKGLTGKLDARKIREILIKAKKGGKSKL", "assay": "Measurement of the bioluminescence spectra (luminescent spectrum of substrate with luciferase, ATP-Mg)", "assay_type": "biochemical", "conditions": "for luminescent wavelength (maximum wavelength of the bioluminescence spectrum): potassium phosphate buffer pH 8.0, substrate solution 2.5 mM, exposure 60 seconds; for color of the luminescence: FIG. 1", "protocol": "Measurement of Luminescent Spectrum\nThey were measured using feeble luminescence fluorescent spectra device AB-1850 manufactured by ATTO Co., Ltd. All the measured spectra were the spectra which calibrated with the characteristic of the detector.\nFor the luciferase (derived from Photinus pyralis of North America product firefly), was used the recombination type manufactured by Sigma-Aldrich Corporation or Promega KK.\nFor ATP-Mg the product manufactured by Sigma-Aldrich Corporation was used.\nThe Substrate was weighted with an electronic balance, and it was diluted. The phosphate-buffered saline (50 mM, pH 6.0) was used in the case of the chemiluminescence measurement, and t-butanol was used in the case of the bioluminescence as a solvent.\nThe luciferase was diluted with Tris-HCl buffer solution (50 mM, pH 8.0 s) to become 1 μg/μl and divided. This was used as stocked solution, so that was diluted to be used each time. Note that, the stock solutions were stored in a freezer of −80 degrees Celsius.\nATP-Mg was diluted in the ultra pure water.\nThe solution of a potassium phosphate buffer (0.5 M, pH 8.0, 20 μl), the solution of substrate (2.5 mM, 20 μl) and enzyme solution (20 μl), then ATP-Mg solution (ten mM, 40 μl) were mixed in a 200 μL of a polystyrene tube, and measured the luminescent spectrum. The enzyme solution was used at the concentration of 17 μM, provided that enzymes at 1.7 μM and at 170 μM were used in the firefly luciferin (1) and the phenol type luciferin respectively. The exposure time for the measurement of the luminescent spectrum was 60 seconds, provided that the firefly luciferin was five seconds."}, "[3]": {"conditions": "Photinus pyralis luciferase, ATP-Mg"}}, "note": "“And” between values parts separate entries of the source, which are not always exact repeats. Identical values can stand only once.", "data": [{"smiles": "Nc1ccc2nc(C3=N[C@@H](C(=O)O)CS3)sc2c1", "note": "[Aminoluciferin]", "values": [{"measurement": "luminescence wavelength", "setting": "[1]", "result": "About 610 nm"}]}, {"smiles": "O=C(O)[C@H]1CSC(c2ccc(O)cc2)=N1", "note": "[analogs 7]", "values": [{"measurement": "luminescent wavelength (maximum wavelength of the bioluminescence spectrum)", "setting": "[2]; [3]", "result": 415, "unit": "nm"}, {"measurement": "melting point", "result": "200 to 204 °C (dec.)"}]}, {"smiles": "O=C(O)[C@H]1CSC(/C=C/c2ccc(O)cc2)=N1", "note": "[analogs 8]", "values": [{"measurement": "luminescent wavelength (maximum wavelength of the bioluminescence spectrum)", "setting": "[2]; [3]", "result": 520, "unit": "nm"}, {"measurement": "melting point", "result": "138 to 140 °C (dec.)"}]}, {"smiles": "O=C(O)[C@H]1CSC(/C=C/c2cccc(O)c2)=N1", "note": "[analogs 9]", "values": [{"measurement": "luminescent activity as substrate", "setting": "[2]; Photinus pyralis luciferase, ATP-Mg, pH 8.0", "result": "did not luminescent"}, {"measurement": "melting point", "result": "163 to 165 °C (dec.)"}]}, {"smiles": "CN(C)c1ccc(/C=C/C=C/C2=N[C@@H](C(=O)O)CS2)cc1", "note": "[analogs II, dimethyl aniline-diene type luciferin]", "values": [{"measurement": "color of the luminescence", "setting": "[2]", "result": "blue"}, {"measurement": "luminescent wavelength (maximum wavelength of the bioluminescence spectrum)", "setting": "[2]; [3]", "result": "445 nm and > 680 nm"}]}, {"smiles": "CN(C)c1ccc(/C=C/C2=N[C@@H](C(=O)O)CS2)cc1", "note": "[analogs III, dimethyl aniline-monoene type luciferin]", "values": [{"measurement": "color of the luminescence", "setting": "[2]", "result": "yellow green"}, {"measurement": "luminescent wavelength (maximum wavelength of the bioluminescence spectrum)", "setting": "[2]; [3]", "result": 565, "unit": "nm"}]}, {"smiles": "CN(C)c1ccc(C2=N[C@@H](C(=O)O)CS2)cc1", "note": "[analogs IV, dimethyl aniline type luciferin]", "values": [{"measurement": "color of the luminescence", "setting": "[2]", "result": "red"}, {"measurement": "luminescent wavelength (maximum wavelength of the bioluminescence spectrum)", "setting": "[2]; Photinus pyralis luciferase, ATP-Mg, listed as IV", "result": "680 nm and 445 nm"}, {"measurement": "luminescent wavelength (maximum wavelength of the bioluminescence spectrum)", "setting": "[2]; Photinus pyralis luciferase, ATP-Mg, listed as dimethyl aniline type luciferin", "result": "about 445 nm"}]}]}
